Laboratory results from publication PMC4604765, “Eye drop delivery of pigment epithelium-derived factor-34 promotes retinal ganglion cell neuroprotection and axon regeneration” (Molecular and Cellular Neurosciences, 2015).
Like-named read-outs stand apart in the source and are kept apart here. No end group written: not given here.

Assays:
[1] = system: βIII-tubulin+ retinal neurons; test: Neurite outgrowth in mixed adult rat retinal cultures (βIII-tubulin immunocytochemistry); type: cell-based
Excerpt: For all in vitro experiments, adult 6–8-week-old female Sprague–Dawley rats weighing 170–220 g were used. Culture experiments included retinal cells treated with: (1), Neurobasal-A (NBA) alone (Control); and equimolar concentrations of (2), 2.16; (3) 5.4; (4), 10.8 and (5), 21.6 pM PEDF-34/-44; and (6), ciliary neurotrophic factor (CNTF: Peprotech, London, UK), as a positive control at an optimal neuroprotective/axogenic concentration of 440.5 pM, established by us previously ([Ahmed et al., 2009; Douglas et al., 2009]). […] All experiments were performed in triplicate and repeated on three independent occasions.
Mixed adult rat retinal cultures containing enriched populations of retinal neurons, including RGCs, were prepared from 6–8-week-old adult female Sprague–Dawley rats, as described previously ([Ahmed et al., 2006b, 2009, 2010; Douglas et al., 2009; Vigneswara et al., 2013]). Briefly, retinal cells were dissociated using a Papain dissociation kit according to the manufacturer's instructions (Worthington Biochemicals, Lakewood, NJ, USA). Retinal cells were plated at a density of 125 × 10^3/well in poly-D-lysine and laminin pre-coated 8-well chamber slides and cultured in NBA supplemented with B27 supplement (all from Invitrogen, Paisley, UK), with appropriate treatments for 4 days at 37 °C and 5% CO2 before fixation in 4% paraformaldehyde diluted in PBS for immunocytochemistry, as described previously ([Vigneswara et al., 2013, 2014]).
Fixed cells were washed in several changes of PBS before permeabilisation and blocking of non-specific antibody sites with PBS containing 3% bovine serum albumin (BSA) and 0.1% Triton X-100 (both from Sigma, Poole, UK). Cells were then incubated with monoclonal anti-βIII-tubulin antibody (1:200 dilution; Sigma) for 1 h at room temperature (RT) to detect retinal neurons and their neurites. Cells were then washed in several changes of PBS and incubated with Alexa 488 anti-mouse IgG (1:400 dilution; Invitrogen) for 1 h at RT. After washing in several changes of PBS and mounting in Vectamount containing DAPI (Vector Laboratories, Peterborough, UK), cells were then viewed using a Zeiss epi-fluorescent microscope equipped with an AxioCam HRc and Axiovision Image capture software (all from Zeiss, Hertfordshire, UK). Immunocytochemistry included controls with primary antibody omitted, to set background levels of nonspecific staining (not shown) before image capture.
The mean number of βIII-tubulin^+ neurons surviving, with neurites and the mean neurite length were quantified as described by us previously ([Vigneswara et al., 2013, 2014]). Briefly, chamber slides were anonymised by a second investigator and βIII-tubulin^+ neuronal soma and neurites quantified in 9 quadrants/well using Axiovision software (Version 4.8; Zeiss) and ImagePro (Version 6.3; Media Cybernetics, Bethesda, MD, USA). Of the 125,000 cells/well plated, the total numbers of neurons in each experiment were determined by βIII-tubulin^+ immunocytochemistry after allowing 30 min for cells to adhere to glass culture slides. This determines the number of neurons plated/well and is used in each experiment to work out the proportion of surviving βIII-tubulin^+ neurons. Neurite outgrowth from at least 180 neurons/condition from the 9 wells was measured, except in control (NBA) cultures, in which a total of 108 neurons were measured.

[2] = system: embryonic rat spinal motor neurons; conditions: ref Bilak et al., 2002; cited from earlier work
Excerpt: Axotomised RGCs are not viable unless treated with neurotrophic factors such as brain-derived neurotrophic factor, ciliary neurotrophic factor and glial cell line-derived factor ([Ahmed et al., 2006b; Benowitz and Yin, 2007; Watanabe et al., 2003; Yip and So, 2000]). Recently, we confirmed that, after optic nerve crush (ONC), PEDF is RGC neuroprotective and axogenic ([Vigneswara et al., 2013]), whilst other neuroprotective and anti-angiogenic N-terminal fragments of the native peptide exist ([Bilak et al., 2002; Gvritishvili et al., 2010; Li et al., 2006; Mirochnik et al., 2009]) including the ...

[3] = Stability in culture media and on long-term storage; conditions: no data shown
[4] = single eye drop, ELISA
[5] = 5.4 pM (peak), 4 days in culture

## DPFFKVPVNKLAAAVSNFGYDLYRVRSSTSPTTN [PEDF-34]
[1]; [5]
  mean neurite length: 211 ± 23 μm
  mean proportion of βIII-tubulin+ neurons with neurites: 21 ± 2%
[1]; PEDF-34 versus CNTF (440.5 pM)
  fold longer neurites than in CNTF cultures: 2.2 fold
  fold more βIII-tubulin+ neurons with neurites than in CNTF cultures: 10.5 fold
[1]; PEDF-34 versus PEDF-44
  fold longer neurites than in PEDF-44 cultures: 1.7 fold
  fold more βIII-tubulin+ neurons with neurites than in PEDF-44 cultures: 2.3 fold
[1]; PEDF-34 versus equimolar PEDF-44, retinal cultures
  more neuritogenic than PEDF-44 in vitro: 52%
[1]; PEDF-34 versus untreated
  fold longer neurites than in untreated cultures: 6.3 fold
  fold more βIII-tubulin+ neurons with neurites than in untreated cultures: 21 fold
[1]; statement in discussion
  retinal neuron/RGC neuritogenesis/axogenesis compared to untreated controls: Five-fold more
[2]
  neuroprotection of embryonic rat spinal motor neurons: not neuroprotective
[3]; PEDF-34 compared with PEDF-44
  stability in culture media: equally stable
[3]
  neurotrophic properties after long-term storage: retained their neurotrophic properties
[4]; 1.88 nM dose (peak), 0.5 h
  level of total PEDF in the retina: 0.18 ± 0.007 nM
[4]; 1.88 nM dose (peak), 0.5 h, 6 animals (12 eyes)
  level of total PEDF in the vitreous: 0.42 ± 0.01 nM
[4]; 4 h
  peak level of total PEDF in the retina: 0.24 ± 0.005 nM
  peak level of total PEDF in the vitreous: 0.39 ± 0.004 nM
[4]; 24 h
  peak level of total PEDF in the retina: 0.12 ± 0.002 nM
  peak level of total PEDF in the vitreous: 0.21 ± 0.004 nM
